Data from patent US8268848B2, “Cyclopropane compound” (Eisai R&D Management Co., Ltd., priority 2010, dated 2012).
Where two headings read alike, the source gives them in different places.

Assays:
OX2 = target: T1, OX2 (Homo sapiens, UniProt O43614); test: Measurement of orexin receptor-binding ability ([125I]-OX-A, cell membranes, OX2); parameters: expressed in transfected cells; host or cells: CHO cells (membrane preparation); conditions: membranes of recombinant CHO cells expressing OX2, 0.2 nM [125I]-OX-A
T1 sequence (O43614 1-444): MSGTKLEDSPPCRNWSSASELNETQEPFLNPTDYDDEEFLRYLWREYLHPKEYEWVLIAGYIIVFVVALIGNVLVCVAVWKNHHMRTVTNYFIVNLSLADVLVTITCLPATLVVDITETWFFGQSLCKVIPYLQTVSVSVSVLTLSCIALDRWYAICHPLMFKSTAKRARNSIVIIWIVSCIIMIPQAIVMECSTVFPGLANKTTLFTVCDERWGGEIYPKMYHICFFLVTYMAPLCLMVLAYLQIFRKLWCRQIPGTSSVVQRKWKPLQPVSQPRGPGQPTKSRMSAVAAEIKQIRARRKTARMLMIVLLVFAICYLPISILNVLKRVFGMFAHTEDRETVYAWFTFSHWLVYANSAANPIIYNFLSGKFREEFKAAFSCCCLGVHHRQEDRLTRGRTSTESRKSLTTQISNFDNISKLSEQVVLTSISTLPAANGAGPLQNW

OX1 = target: T2, OX1 (Homo sapiens, UniProt O43613); test: Measurement of orexin receptor-binding ability ([125I]-OX-A, cell membranes, OX1); parameters: expressed in transfected cells; host or cells: CHO cells (membrane preparation)
T2 sequence (O43613 1-425): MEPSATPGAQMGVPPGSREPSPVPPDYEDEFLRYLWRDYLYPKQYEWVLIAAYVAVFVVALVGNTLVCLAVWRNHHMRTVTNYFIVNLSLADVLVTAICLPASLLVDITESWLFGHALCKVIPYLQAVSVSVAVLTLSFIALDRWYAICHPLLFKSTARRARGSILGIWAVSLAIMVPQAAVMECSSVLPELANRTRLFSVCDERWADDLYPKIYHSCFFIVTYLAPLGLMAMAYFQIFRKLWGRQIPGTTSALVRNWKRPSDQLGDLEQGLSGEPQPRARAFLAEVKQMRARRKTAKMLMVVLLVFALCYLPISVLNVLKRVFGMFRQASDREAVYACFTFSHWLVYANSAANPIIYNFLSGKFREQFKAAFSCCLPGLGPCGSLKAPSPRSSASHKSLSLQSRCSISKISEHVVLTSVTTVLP

[1] = membranes of recombinant CHO cells expressing OX1, 0.2 nM [125I]-OX-A, read-out: OX1 (IC50)

Row | Structure (SMILES) | IC50 (OX2; OX2 (IC50) nM) [nM] | IC50 (OX1) [nM] | IC50 (OX2; read-out: OX2 (IC50)) [nM] | IC50 (OX1; [1]) [nM]
1 | Cc1ncc(OC[C@@]2(c3ccccc3)C[C@H]2C(=O)Nc2cc(C(F)F)ccn2)c(C)n1 [Example 15] | 41 | 213 | – | –
2 | COCc1nc(C)ncc1OC[C@@]1(c2cc(F)cc(OC)c2)C[C@H]1C(=O)Nc1cc(C)c(F)cn1 [Example 234, (1R,2S)-2-(3-fluoro-5-methoxyphenyl)-N-(5-fluoro-4-methylpyridin-2-yl)-2-{[(4-methoxymethyl-2-methylpyrimidin-5-yl)oxy]methyl}cyclopropanecarboxamide] | – | – | 4 | < 2
3 | Cc1ncc(OC[C@@]2(c3ccc(Br)cc3)C[C@H]2C(=O)Nc2ccc(F)cn2)c(C)n1 [Example 274] | 19 | 59 | – | –
4 | Cc1ncc(OC[C@@]2(c3ccsc3)C[C@H]2C(=O)Nc2ccc(Cl)cn2)c(C)n1 [Example 269] | – | – | 23 | 264
5 | Cc1ncc(OC[C@@]2(c3cccc(F)c3)C[C@H]2C(=O)Nc2ccc(F)cc2)c(C)n1 [Example 92, (1R,2S)-2-{[(2,4-dimethylpyrimidin-5-yl)oxy]methyl}-2-(3-fluorophenyl)-N-(4-fluorophenyl)cyclopropanecarboxamide] | 8 | 23 | – | –
6 | Cc1ncc(OC[C@@]2(c3ccccc3)C[C@H]2C(=O)Nc2cnc(Cl)c(Br)c2)c(C)n1 [Example 59] | – | – | 51 | 1410
7 | CCc1ncc(OC[C@@]2(c3ccccc3)C[C@H]2C(=O)Nc2ccc(Cl)cn2)c(C)n1 [Example 128, (1R,2S)-N-(5-chloropyridin-2-yl)-2-{[(2-ethyl-4-methylpyrimidin-5-yl)oxy]methyl}-2-phenylcyclopropanecarboxamide] | – | – | 75 | 231
8 | COc1ncc(OC[C@@]2(c3ccccc3)C[C@H]2C(=O)Nc2ccc(C#N)cn2)c(C)n1 [Example 127, (1R,2S)-N-(5-cyanopyridin-2-yl)-2-{[(2-methoxy-4-methylpyrimidin-5-yl)oxy]methyl}-2-phenylcyclopropanecarboxamide] | – | – | 80 | 1100
9 | CCc1ncc(OC[C@@]2(c3ccccc3)C[C@H]2C(=O)Nc2ccc(F)cn2)c(C)n1 [Example 313] | 107 | 224 | – | –
10 | Cc1ncc(OC[C@@]2(c3ccccc3)C[C@H]2C(=O)Nc2ccnc(C#N)c2)c(C)n1 [Example 41, (1R,2S)-N-(2-cyanopyridin-4-yl)-2-{[(2,4-dimethylpyrimidin-5-yl)oxy]methyl}-2-phenylcyclopropanecarboxamide] | – | – | 8 | 125
11 | Cc1ncc(OC[C@@]2(c3ccccc3)C[C@H]2C(=O)Nc2cc(F)cc(C#N)c2)c(C)n1 [Example 34] | 18 | 430 | – | –
12 | COCc1ccnc(NC(=O)[C@@H]2C[C@@]2(COc2cnc(C)nc2C)c2ccccc2)c1 [Example 14] | – | – | 16 | 302
13 | Cc1ncc(OC[C@@]2(c3cccc(I)c3)C[C@H]2C(=O)Nc2ccc(F)cn2)c(C)n1 [Example 283, (1R,2S)-2-{[(2,4-dimethylpyrimidin-5-yl)oxy]methyl}-N-(5-fluoropyridin-2-yl)-2-(3-iodophenyl)cyclopropanecarboxamide] | 9 | 172 | – | –
14 | Cc1ncc(N(C)C[C@@]2(c3ccccc3)C[C@H]2C(=O)Nc2cc(C)c(F)cn2)c(C)n1 [Example 299] | – | – | 46 | 304
15 | Cc1ncc(OC[C@@]2(c3ccccc3)C[C@H]2C(=O)Nc2cc(F)cc(F)c2)c(C)n1 [Example 31] | – | – | 26 | 222
16 | Cc1ncc(OC[C@@]2(c3ccccc3)C[C@H]2C(=O)Nc2ccccc2F)c(C)n1 [Example 78] | 94 | 662 | – | –
17 | Cc1ncc(OC[C@@]2(c3cccc(C#N)c3)C[C@H]2C(=O)Nc2cc(C)c(F)cn2)c(C)n1 [Example 117, (1R,2S)-2-(3-cyanophenyl)-2-{[(2,4-dimethylpyrimidin-5-yl)oxy]methyl}-N-(5-fluoro-4-methylpyridin-2-yl)cyclopropanecarboxamide] | – | – | 4 | 19
18 | Cc1ncc(OC[C@@]2(c3ccccc3)C[C@H]2C(=O)Nc2cc3ccccc3cn2)c(C)n1 [Example 52] | – | – | 28 | 37

Row | Structure (SMILES) | IC50 (OX2; OX2 (IC50) nM) [nM] | IC50 (OX1) [nM] | IC50 (OX2; read-out: OX2 (IC50)) [nM] | IC50 (OX1; [1]) [nM]
19 | Cc1ncc(OC[C@@]2(c3ccccc3)C[C@H]2c2nc3cc(F)ccc3[nH]2)c(C)n1 [Example 303, 2-{(1R,2S)-2-{[(2,4-dimethylpyrimidin-5-yl)oxy]methyl}-2-phenylcyclopropyl}-5-fluoro-1H-benzimidazole] | – | – | 3 | 75
20 | Cc1ncc(OC[C@@]2(c3cccc(F)c3)C[C@H]2C(=O)Nc2ccncc2)c(C)n1 [Example 90] | 95 | 2060 | – | –
21 | Cc1ncc(OC[C@@]2(c3ccccc3)C[C@H]2C(=O)Nc2cc(F)cc(F)n2)c(C)n1 [Example 76-1, (1R,2S)-N-(4,6-difluoropyridin-2-yl)-2-{[(2,4-dimethylpyrimidin-5-yl)oxy]methyl}-2-phenylcyclopropanecarboxamide] | 61 | 489 | – | –
22 | Cc1ncc(OC[C@@]2(c3ccccc3)C[C@H]2C(=O)Nc2nc(C)c(C)s2)c(C)n1 [Example 4] | – | – | 38 | 55
23 | COc1cc(NC(=O)[C@@H]2C[C@@]2(COc2cnc(C)nc2C)c2cccc(F)c2)ncc1F [Example 94, (1R,2S)-2-{[(2,4-dimethylpyrimidin-5-yl)oxy]methyl}-N-(5-fluoro-4-methoxypyridin-2-yl)-2-(3-fluorophenyl)cyclopropanecarboxamide] | 2.3 | 2.8 | – | –
24 | Cc1ncc(OC[C@@]2(c3cc(F)cc(F)c3)C[C@H]2c2nc3ncc(F)cc3[nH]2)c(C)n1 [Example 306, 2-{(1R,2S)-2-(3,5-difluorophenyl)-2-{[(2,4-dimethylpyrimidin-5-yl)oxy]methyl}cyclopropyl}-6-fluoro-1H-imidazo[4,5-b]pyridine] | – | – | 8 | 15
25 | Cc1ncc(OC[C@@]2(c3ccccc3)C[C@H]2C(=O)Nc2cc(C#N)ccn2)c(C)n1 [Example 46] | – | – | 43 | 423
26 | Cc1ncc(OC[C@@]2(c3cc(F)ccc3O)C[C@H]2C(=O)Nc2ccc(F)cn2)c(C)n1 [Example 324, (1R,2S)-2-{[(2,4-dimethylpyrimidin-5-yl)oxy]methyl}-2-(5-fluoro-2-hydroxyphenyl]-N-(5-fluoropyridin-2-yl)cyclopropanecarboxamide] | 5.9 | 113 | – | –
27 | Cc1ncc(OC[C@@]2(c3ccccc3)C[C@H]2C(=O)Nc2ccc3c(c2)NC(=O)CO3)c(C)n1 [Example 23] | – | – | 67 | 1700
28 | Cc1ncc(OC[C@@]2(c3cccc(F)c3)C[C@H]2C(=O)Nc2ccc(F)cn2)c(CF)n1 [Example 320, (1R,2S)-2-{[(4-fluoromethyl-2-methylpyrimidin-5-yl)oxy]methyl}-2-(3-fluorophenyl)-N-(5-fluoropyridin-2-yl)cyclopropanecarboxamide] | 2.3 | 12.3 | – | –
29 | Cc1ncc(OC[C@@]2(c3ccccc3)C[C@H]2C(=O)Nc2ccnc(Cl)c2)c(C)n1 [Example 33] | – | – | 15 | 209
30 | Cc1ncc(OCC2(c3cccc(Cl)c3)CC2C(=O)Nc2cccnc2)c(C)n1 (stereo not shown) [Example 157] | 69 | 397 | – | –
31 | COCc1nc(C)ncc1OC[C@@]1(c2cc(F)cc(OC)c2)C[C@H]1C(=O)Nc1cccc(F)c1 [Example 236, (1R,2S)-2-(3-fluoro-5-methoxyphenyl)-N-(3-fluorophenyl)-2-{[(4-methoxymethyl-2-methylpyrimidin-5-yl)oxy]methyl}cyclopropanecarboxamide] | 5 | 21 | – | –
32 | Cc1ncc(N(C)C[C@@]2(c3ccccc3)C[C@H]2C(=O)Nc2ccc(F)cc2)c(C)n1 [Example 300] | – | – | 34 | 495
33 | COc1cncc(NC(=O)[C@@H]2C[C@@]2(COc2cnc(C)nc2C)c2cccc(F)c2)c1 [Example 89] | 14 | 161 | – | –
34 | COc1cccc(C2(COc3cnc(C)nc3C)CC2C(=O)Nc2cccnc2)c1 (stereo not shown) [Example 184] | – | – | 21 | 784
35 | Cc1ncc(NC[C@@]2(c3cccc(F)c3)C[C@H]2C(=O)Nc2ccc(F)cn2)c(C(F)(F)F)n1 [Example 302, (1R,2S)-2-(3-fluorophenyl)-N-(5-fluoropyridin-2-yl)-2-[N-(2-methyl-4-trifluoromethylpyrimidin-5-yl)aminomethyl]cyclopropanecarboxamide] | – | – | 3 | 8
